From patent publication US20230278972A1, “SUBSTITUTED HALOALKYL SULFONANILIDE HERBICIDES” (FMC Corporation, priority 2020, published 2023)

Tests used:
Format in all cases: in vivo
corn (Zea mays) = experiment: Test A1 preemergence, corn
In short: (§1)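 Both timings started from seed in a loam-sand blend. Preemergence pots got a directed soil application immediately; postemergence pots were sprayed when seedlings had one or two leaves and stood 2–10 cm. Each compound was prepared in a non-phytotoxic solvent plus surfactant.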

[1] = system: Pigweed, Palmer (palmer amaranth, palmer pigweed, Amaranthus palmeri); experiment: Test A1 preemergence, Pigweed, Palmer
In short: as §1

[2] = system: Ryegrass, Italian (Italian ryegrass, Lolium multiflorum); experiment: Test A1 preemergence, Ryegrass, Italian
In short: as §1

[3] = system: wheat (Triticum aestivum); experiment: Test A1 postemergence, wheat; conditions: 0 to 100 scale (0 no effect, 100 complete control); for Wheat plant response rating: 31 g ai/ha, postemergence; for Plant response rating, Wheat: Postemergence, 125 g ai/ha, 10 days
In short: (§2)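 Plants were grown in a loam soil/sand blend, with test chemicals formulated in a non-phytotoxic solvent mixture containing surfactant. Preemergence treatment (corn) was a directed soil spray at planting. Postemergence treatment was applied to plants 2 to 10 cm tall at the one- to two-leaf stage.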

[4] = system: horseweed (Erigeron canadensis); experiment: Test A1 postemergence, horseweed; conditions: 0 to 100 scale (0 no effect, 100 complete control); for Horseweed plant response rating: 31 g ai/ha, postemergence; for Plant response rating, Horseweed: Postemergence, 125 g ai/ha, 10 days
In short: as §2

[5] = 31 g ai/ha, 0 to 100 scale (0 no effect, 100 complete control)
[6] = 125 g ai/ha, 0 to 100 scale, 0 no effect, 100 complete control
[7] = 125 g ai/ha, 0 to 100 scale (0 no effect, 100 complete control)

`Cc1c(C2=NOC3(CCCC3)C2)cc(N(COC(=O)C(C)(C)C)S(=O)(=O)C(F)(F)F)c(C)c1C` [Compound 382] was tested, and the “Plant response rating, Corn” value (corn (Zea mays); [5]) was 0, the “Plant response rating, Corn” value (corn (Zea mays); [6]) was 0 and the “Plant response rating, Pigweed, Palmer” value [1, 5] was 0. For the same molecule, the “Plant response rating, Pigweed, Palmer” value [1, 6] was 20, the “Plant response rating, Ryegrass, Italian” value [2, 5] was 30 and the “Plant response rating, Ryegrass, Italian” value [2, 6] was 50. The “Wheat plant response rating” value [3] was 0, the “Plant response rating, Wheat” value [3] was 60 and the “Horseweed plant response rating” value [4] was 0. For the same molecule, the “Plant response rating, Horseweed” value [4] was 50.

For `Cc1cc(C)c(N2CC3(CCCCC3)CC2=O)cc1NS(=O)(=O)C(F)(F)F` [Compound 392], the “Plant response rating, Corn” value (corn (Zea mays); [5]) was 10, the “Plant response rating, Corn” value (corn (Zea mays); [6]) was 10 and the “Plant response rating, Pigweed, Palmer” value [1, 5] was 0. The “Plant response rating, Pigweed, Palmer” value [1, 6] was 20, the “Plant response rating, Ryegrass, Italian” value [2, 5] was 0 and the “Plant response rating, Ryegrass, Italian” value [2, 6] was 60. For the same molecule, the “Wheat plant response rating” value [3] was 0, the “Plant response rating, Wheat” value [3] was 30 and the “Horseweed plant response rating” value [4] was 0. For the same molecule, the “Plant response rating, Horseweed” value [4] was 20.

In the case of `Cc1cc(Cl)c(NS(=O)(=O)C(F)(F)F)cc1N1CCC2(CCCCC2)C1=O` [Compound 393], the “Plant response rating, Corn” value (corn (Zea mays); [5]) is reported as 0, the “Plant response rating, Corn” value (corn (Zea mays); [6]) is reported as 80 and the “Plant response rating, Pigweed, Palmer” value [1, 5] is reported as 30. For the same molecule, the “Plant response rating, Pigweed, Palmer” value [1, 6] was 60, the “Plant response rating, Ryegrass, Italian” value [2, 5] was 90 and the “Plant response rating, Ryegrass, Italian” value [2, 6] was 100. The “Wheat plant response rating” value [3] was 30, the “Plant response rating, Wheat” value [3] was 60 and the “Horseweed plant response rating” value [4] was 0. The “Plant response rating, Horseweed” value [4] was 30.

For `COC1CCC2(CC1)CCN(c1cc(NS(=O)(=O)C(F)(F)F)c(C)cc1C)C2=O` (stereo not shown) [Compound 398], the “Plant response rating, Corn” value (corn (Zea mays); [5]) was 0, the “Plant response rating, Corn” value (corn (Zea mays); [6]) was 60 and the “Plant response rating, Pigweed, Palmer” value [1, 5] was 80. For the same molecule, the “Plant response rating, Pigweed, Palmer” value [1, 6] was 100, the “Plant response rating, Ryegrass, Italian” value [2, 5] was 60 and the “Plant response rating, Ryegrass, Italian” value [2, 6] was 100. For the same molecule, the “Wheat plant response rating” value [3] was 60, the “Plant response rating, Wheat” value [3] was 70 and the “Horseweed plant response rating” value [4] was 20. The “Plant response rating, Horseweed” value [4] was 50.

With `Cc1cc(C)c(N(S(=O)(=O)C(F)(F)F)S(=O)(=O)C(F)(F)F)cc1N1CCC2(CCC(C(F)(F)F)CC2)C1=O` (stereo not shown) [Compound 399] the “Plant response rating, Corn” value (corn (Zea mays); [5]) was 0, the “Plant response rating, Corn” value (corn (Zea mays); [6]) was 0 and the “Plant response rating, Pigweed, Palmer” value [1, 5] was 30. For the same molecule, the “Plant response rating, Pigweed, Palmer” value [1, 6] was 60, the “Plant response rating, Ryegrass, Italian” value [2, 5] was 40 and the “Plant response rating, Ryegrass, Italian” value [2, 6] was 90. The “Wheat plant response rating” value [3] was 60, the “Plant response rating, Wheat” value [3] was 60 and the “Horseweed plant response rating” value [4] was 0. For the same molecule, the “Plant response rating, Horseweed” value [4] was 50.

With `Cc1cc(C)c(N2CCC3(CCC(C(F)(F)F)CC3)C2=O)cc1NS(=O)(=O)C(F)(F)F` (stereo not shown) [Compound 400] the “Plant response rating, Corn” value (corn (Zea mays); [5]) was 0, the “Plant response rating, Corn” value (corn (Zea mays); [6]) was 20 and the “Plant response rating, Pigweed, Palmer” value [1, 5] was 50. The “Plant response rating, Pigweed, Palmer” value [1, 6] was 100, the “Plant response rating, Ryegrass, Italian” value [2, 5] was 60 and the “Plant response rating, Ryegrass, Italian” value [2, 6] was 90. For the same molecule, the “Wheat plant response rating” value [3] was 30, the “Plant response rating, Wheat” value [3] was 30 and the “Horseweed plant response rating” value [4] was 30. For the same molecule, the “Plant response rating, Horseweed” value [4] was 80.

In the case of `Cc1cc(C)c(N(COC(=O)C(C)(C)C)S(=O)(=O)C(F)(F)F)cc1N1CCC2(CCC(C)CC2)C1=O` (stereo not shown) [Compound 401], the “Plant response rating, Corn” value (corn (Zea mays); [5]) is reported as 0, the “Plant response rating, Corn” value (corn (Zea mays); [6]) is reported as 20 and the “Plant response rating, Pigweed, Palmer” value [1, 5] is reported as 0. The “Plant response rating, Pigweed, Palmer” value [1, 6] was 20, the “Plant response rating, Ryegrass, Italian” value [2, 5] was 0 and the “Plant response rating, Ryegrass, Italian” value [2, 6] was 30. The “Wheat plant response rating” value [3] was 0, the “Plant response rating, Wheat” value [3] was 10 and the “Horseweed plant response rating” value [4] was 0. The “Plant response rating, Horseweed” value [4] was 0.

With `Cc1cc(C)c(N2CCC3(CCC(C)CC3)C2=O)cc1NS(=O)(=O)C(F)(F)F` (stereo not shown) [Compound 402] the “Plant response rating, Corn” value (corn (Zea mays); [5]) was 0, the “Plant response rating, Corn” value (corn (Zea mays); [6]) was 80 and the “Plant response rating, Pigweed, Palmer” value [1, 5] was 60. For the same molecule, the “Plant response rating, Pigweed, Palmer” value [1, 6] was 80, the “Plant response rating, Ryegrass, Italian” value [2, 5] was 90 and the “Plant response rating, Ryegrass, Italian” value [2, 6] was 100. For the same molecule, the “Wheat plant response rating” value [3] was 0, the “Plant response rating, Wheat” value [3] was 0 and the “Horseweed plant response rating” value [4] was 20. For the same molecule, the “Plant response rating, Horseweed” value [4] was 50.

For `Cc1cc(C)c(N(COC(=O)C(C)(C)C)S(=O)(=O)C(F)(F)F)cc1N1CCC2(CCC(C(F)(F)F)CC2)C1=O` (stereo not shown) [Compound 403], the “Plant response rating, Corn” value (corn (Zea mays); [5]) was 0, the “Plant response rating, Corn” value (corn (Zea mays); [6]) was 10 and the “Plant response rating, Pigweed, Palmer” value [1, 5] was 0. The “Plant response rating, Pigweed, Palmer” value [1, 6] was 0, the “Plant response rating, Ryegrass, Italian” value [2, 5] was 30 and the “Plant response rating, Ryegrass, Italian” value [2, 6] was 30. The “Wheat plant response rating” value [3] was 0, the “Plant response rating, Wheat” value [3] was 0 and the “Horseweed plant response rating” value [4] was 0. The “Plant response rating, Horseweed” value [4] was 30.

With `Cc1cc(C)c(N2Cc3cccc(C)c3C2=O)cc1NS(=O)(=O)Cl` [Compound 408] the “Plant response rating, Corn” value (corn (Zea mays); [5]) was 40, the “Plant response rating, Corn” value (corn (Zea mays); [6]) was 90 and the “Plant response rating, Pigweed, Palmer” value [1, 7] was 60. For the same molecule, the “Plant response rating, Ryegrass, Italian” value [2, 7] was 100, the “Wheat plant response rating” value [3] was 60 and the “Plant response rating, Wheat” value [3] was 70. The “Horseweed plant response rating” value [4] was 20 and the “Plant response rating, Horseweed” value [4] was 70.

`COc1cccc2c1C(=O)N(c1cc(N(COC(=O)C(C)(C)C)S(=O)(=O)Cl)c(C)cc1C)C2` [Compound 413] was tested, and the “Plant response rating, Corn” value (corn (Zea mays); [5]) was 0, the “Plant response rating, Corn” value (corn (Zea mays); [6]) was 10 and the “Plant response rating, Pigweed, Palmer” value [1, 7] was 90. The “Plant response rating, Ryegrass, Italian” value [2, 7] was 20, the “Wheat plant response rating” value [3] was 0 and the “Plant response rating, Wheat” value [3] was 0. The “Horseweed plant response rating” value [4] was 40 and the “Plant response rating, Horseweed” value [4] was 90.

In the case of `CCOc1cccc2c1C(=O)N(c1cc(N(COC(=O)C(C)(C)C)S(=O)(=O)Cl)c(C)cc1C)C2` [Compound 414], the “Plant response rating, Corn” value (corn (Zea mays); [5]) is reported as 0, the “Plant response rating, Corn” value (corn (Zea mays); [6]) is reported as 10 and the “Plant response rating, Pigweed, Palmer” value [1, 7] is reported as 40. The “Plant response rating, Ryegrass, Italian” value [2, 7] was 30, the “Wheat plant response rating” value [3] was 0 and the “Plant response rating, Wheat” value [3] was 0. The “Horseweed plant response rating” value [4] was 0 and the “Plant response rating, Horseweed” value [4] was 70.

For `Cc1cc(C)c(N2Cc3cccc(Br)c3C2=O)cc1NS(=O)(=O)Cl` [Compound 415], the “Plant response rating, Corn” value (corn (Zea mays); [5]) was 0, the “Plant response rating, Corn” value (corn (Zea mays); [6]) was 80 and the “Plant response rating, Pigweed, Palmer” value [1, 7] was 60. For the same molecule, the “Plant response rating, Ryegrass, Italian” value [2, 7] was 70, the “Wheat plant response rating” value [3] was 20 and the “Plant response rating, Wheat” value [3] was 70. The “Horseweed plant response rating” value [4] was 60.
